Article PMC5421785, “Citrullination only infrequently impacts peptide binding to HLA class II MHC” (PLoS ONE, 2017)
Where two headings read alike, the source gives them in different places. Blank lines part the entries; values can stand above or below the compound they belong to. Square brackets hold non-standard residues; d marks the D form. Ends that are not written are not given here. Peptide text beside a SMILES is read from it. Cit = NC(=O)NCCC[C@H](N)C(=O)O

What was measured:
[1] = target: T1, HLA-DRB1*01:01 (Homo sapiens, UniProt P01903+P01911, A100R/D57E/F55L/F60I/F76Y/I96L/L162R/M171V/P40L/Q125E/R42F/V115G/Y59C); assay: HLA class II peptide binding, inhibition of radiolabeled peptide binding to purified MHC
T1 construct: EBV transformed homozygous cell lines were used as sources of MHC molecules; endogenous in cells; host or cells: EBV transformed homozygous cell lines

[2] = target: T2, HLA-DRB1*04:01 (Homo sapiens, UniProt P01903+P01911, A100K/A169T/F76Y/I96L/K127E/L162R/M171V/N62H/P40V/Q125Y/R42H/S133A/S149N/S66Y/V115G/V209L/W38E); assay: as above
T2 construct: EBV transformed homozygous cell lines were used as sources of MHC molecules; endogenous in cells; host or cells: EBV transformed homozygous cell lines

[3] = citrullinated 15-mer peptide (X = citrulline), purified HLA-DRB1*01:01, read-out: DRB1*01:01 binding capacity, Cit peptide (IC50 nM)
[4] = citrullinated 15-mer peptide (X = citrulline), purified HLA-DRB1*04:01, read-out: DRB1*04:01 binding capacity, Cit peptide (IC50 nM)
[5] = read-out: DRB1*01:01 binding capacity, WT peptide (IC50 nM)
[6] = read-out: DRB1*04:01 binding capacity, WT peptide (IC50 nM)
[7] = ratio of WT IC50 to Cit IC50, >1 = citrullination increases binding
[8] = citrullinated 15-mer (X), purified MHC, inhibition of radiolabeled peptide binding, dash = IC50 >40,000 nM, read-out: DRB1*01:01 binding capacity, Cit peptide (IC50 nM)
[9] = citrullinated 15-mer (X), purified MHC, inhibition of radiolabeled peptide binding, dash = IC50 >40,000 nM, read-out: DRB1*04:01 binding capacity, Cit peptide (IC50 nM)

- IC50 [1, 3]: 3.6 nM
- IC50 [2, 4]: 2050 nM
Compound: CC[C@H](C)[C@H](NC(=O)CN)C(=O)N[C@H](C(=O)NCC(=O)N[C@@H](CC(C)C)C(=O)N1CCC[C@H]1C(=O)NCC(=O)N[C@@H](CCC(N)=O)C(=O)N[C@@H](CCCNC(N)=O)C(=O)NCC(=O)N[C@@H](CCC(=O)O)C(=O)N[C@@H](CCCNC(=N)N)C(=O)NCC(=O)N[C@@H](Cc1ccccc1)C(=O)N1CCC[C@H]1C(=O)O)C(C)C [GIVGLPGQXGERGFP] (H-GIVGLPGQ[Cit]GERGFP-OH)

- IC50 [1, 3]: 5060 nM
- IC50 [2, 4]: > 40000 nM
Compound: CSCC[C@H](NC(=O)[C@H](CCC(=O)O)NC(=O)[C@H](CCC(=O)O)NC(=O)[C@H](CCCCN)NC(=O)[C@H](CCSC)NC(=O)[C@@H](N)CC(N)=O)C(=O)N[C@@H](C)C(=O)N[C@@H](CCCNC(=N)N)C(=O)N[C@@H](Cc1c[nH]cn1)C(=O)N[C@@H](CC(C)C)C(=O)N[C@@H](CCCNC(N)=O)C(=O)N[C@@H](CCC(=O)O)C(=O)N[C@@H](Cc1ccc(O)cc1)C(=O)N[C@@H](CCC(N)=O)C(=O)N[C@@H](CC(=O)O)C(=O)O [NMKEEMARHLXEYQD]

- IC50 [1, 3]: 22600 nM
- IC50 [2, 4]: > 40000 nM
Compound: CC(C)C[C@H](NC(=O)[C@H](C)NC(=O)[C@H](CC(=O)O)NC(=O)[C@@H](N)CC(N)=O)C(=O)N[C@@H](CCCNC(N)=O)C(=O)N[C@@H](CCC(N)=O)C(=O)N[C@@H](C)C(=O)N[C@@H](CCCCN)C(=O)N[C@@H](CCC(N)=O)C(=O)N[C@@H](CCC(=O)O)C(=O)N[C@@H](CO)C(=O)N[C@H](C(=O)N[C@@H](CCC(=O)O)C(=O)N[C@@H](Cc1ccc(O)cc1)C(=O)N[C@@H](CCCNC(=N)N)C(=O)O)[C@@H](C)O [NDALXQAKQESTEYR] (H-NDAL[Cit]QAKQESTEYR-OH)

- IC50 [1, 5]: 3070 nM
- IC50 [2, 6]: > 40000 nM
Compound: CC[C@H](C)[C@H](NC(=O)[C@H](Cc1ccc(O)cc1)NC(=O)[C@H](CC(N)=O)NC(=O)[C@H](C)NC(=O)[C@H](Cc1ccccc1)NC(=O)[C@H](CCCNC(=N)N)NC(=O)[C@H](CC(=O)O)NC(=O)[C@H](CC(N)=O)NC(=O)[C@H](CC(C)C)NC(=O)[C@H](CCC(=O)O)NC(=O)[C@H](CCC(N)=O)NC(=O)[C@H](CC(C)C)NC(=O)[C@@H](N)CCC(=O)O)C(=O)N[C@@H](CC(=O)O)C(=O)N[C@@H](CCCCN)C(=O)O [Vimentin 106 WT]

- IC50 [1, 3]: > 40000 nM
- DRB1*01:01 binding capacity, WT/cit ratio [1, 7]: 1.0
- IC50 [2, 4]: > 40000 nM
- DRB1*04:01 binding capacity, WT/cit ratio [2, 7]: 1.0
Compound: C[C@H](NC(=O)CNC(=O)[C@@H]1CCCN1C(=O)[C@H](CO)NC(=O)CNC(=O)[C@H](CCC(=O)O)NC(=O)[C@@H](N)CCCNC(=N)N)C(=O)N[C@@H](CC(=O)O)C(=O)NCC(=O)N1CCC[C@H]1C(=O)N1CCC[C@H]1C(=O)NCC(=O)N[C@@H](CCCNC(N)=O)C(=O)N[C@@H](CC(=O)O)C(=O)NCC(=O)O [REGSPGADGPPGXDG] (H-REGSPGADGPPG[Cit]DG-OH; N-terminus and C-terminus assumed)

- IC50 [1, 8]: 41 nM
- IC50 [2, 9]: 3220 nM
Compound: CC(C)C[C@H](NC(=O)[C@H](CCCNC(N)=O)NC(=O)[C@@H](NC(=O)[C@H](C)NC(=O)[C@H](CO)NC(=O)[C@H](CO)NC(=O)[C@H](CCCNC(=N)N)NC(=O)[C@@H](NC(=O)[C@H](C)NC(=O)[C@@H](N)Cc1ccc(O)cc1)[C@@H](C)O)C(C)C)C(=O)N[C@@H](CCCNC(=N)N)C(=O)N[C@@H](CO)C(=O)N[C@@H](CO)C(=O)N[C@H](C(=O)N1CCC[C@H]1C(=O)O)C(C)C [YATRSSAVXLRSSVP] (H-YATRSSAV[Cit]LRSSVP-OH)

- IC50 [1, 5]: 440 nM
- IC50 [2, 6]: 9750 nM
Compound: YRRMFGGPGTASRPS [Vimentin 11 WT]

- IC50 [1, 5]: 7.9 nM
- IC50 [2, 6]: 5060 nM
Compound: SAVRLRSSVPGVRLL [Vimentin 66 WT]

- IC50 [1, 3]: 2010 nM
- IC50 [2, 4]: > 40000 nM
Compound: CC(C)[C@H](NC(=O)CNC(=O)[C@H](C)NC(=O)[C@H](C)N)C(=O)N[C@@H](CCCCN)C(=O)NCC(=O)N[C@@H](CC(=O)O)C(=O)N[C@@H](CCCNC(N)=O)C(=O)NCC(=O)N[C@@H](CCC(=O)O)C(=O)N[C@H](C(=O)NCC(=O)N[C@@H](C)C(=O)N[C@H](C(=O)NCC(=O)O)C(C)C)[C@@H](C)O [AAGVKGDXGETGAVG] (H-AAGVKGD[Cit]GETGAVG-OH)

- IC50 [1, 8]: 13200 nM
- IC50 [2, 9]: > 40000 nM
Compound: CSCC[C@H](NC(=O)[C@H](CCC(=O)O)NC(=O)[C@H](CCC(=O)O)NC(=O)[C@H](CCC(N)=O)NC(=O)[C@H](CC(C)C)NC(=O)[C@H](CCCCN)NC(=O)[C@H](CCC(=O)O)NC(=O)[C@@H](N)CCCNC(=N)N)C(=O)N[C@@H](CC(C)C)C(=O)N[C@@H](CCC(N)=O)C(=O)N[C@@H](CCCNC(N)=O)C(=O)N[C@@H](CCC(=O)O)C(=O)N[C@@H](CCC(=O)O)C(=O)N[C@@H](C)C(=O)N[C@@H](CCC(=O)O)C(=O)O [REKLQEEMLQXEEAE] (H-REKLQEEMLQ[Cit]EEAE-OH)

- IC50 [1, 8]: 60 nM
- IC50 [2, 9]: 974 nM
Compound: CSCC[C@H](NC(=O)[C@H](CCCNC(N)=O)NC(=O)[C@H](CCCNC(=N)N)NC(=O)[C@H](Cc1ccc(O)cc1)NC(=O)[C@H](CO)NC(=O)[C@H](CO)NC(=O)[C@H](CO)NC(=O)[C@H](CO)NC(=O)[C@@H](N)C(C)C)C(=O)N[C@@H](Cc1ccccc1)C(=O)NCC(=O)NCC(=O)N1CCC[C@H]1C(=O)NCC(=O)N[C@H](C(=O)O)[C@@H](C)O [VSSSSYRXMFGGPGT] (H-VSSSSYR[Cit]MFGGPGT-OH)
